Reference: patent US20100160207A1, “Feedback Prodrug” (University of Georgia Research Foundation, Inc., priority 2006, published 2010)
Values belong to the compound of their own block, whether it stands above or below them.

Columns and labels:
[1] = molecular target: T1, human lysosomal mannosidase (HLM) (Homo sapiens, UniProt O00754); assay: Inhibition of human lysosomal mannosidase; assay type: biochemical
T1 sequence (O00754 50-1011): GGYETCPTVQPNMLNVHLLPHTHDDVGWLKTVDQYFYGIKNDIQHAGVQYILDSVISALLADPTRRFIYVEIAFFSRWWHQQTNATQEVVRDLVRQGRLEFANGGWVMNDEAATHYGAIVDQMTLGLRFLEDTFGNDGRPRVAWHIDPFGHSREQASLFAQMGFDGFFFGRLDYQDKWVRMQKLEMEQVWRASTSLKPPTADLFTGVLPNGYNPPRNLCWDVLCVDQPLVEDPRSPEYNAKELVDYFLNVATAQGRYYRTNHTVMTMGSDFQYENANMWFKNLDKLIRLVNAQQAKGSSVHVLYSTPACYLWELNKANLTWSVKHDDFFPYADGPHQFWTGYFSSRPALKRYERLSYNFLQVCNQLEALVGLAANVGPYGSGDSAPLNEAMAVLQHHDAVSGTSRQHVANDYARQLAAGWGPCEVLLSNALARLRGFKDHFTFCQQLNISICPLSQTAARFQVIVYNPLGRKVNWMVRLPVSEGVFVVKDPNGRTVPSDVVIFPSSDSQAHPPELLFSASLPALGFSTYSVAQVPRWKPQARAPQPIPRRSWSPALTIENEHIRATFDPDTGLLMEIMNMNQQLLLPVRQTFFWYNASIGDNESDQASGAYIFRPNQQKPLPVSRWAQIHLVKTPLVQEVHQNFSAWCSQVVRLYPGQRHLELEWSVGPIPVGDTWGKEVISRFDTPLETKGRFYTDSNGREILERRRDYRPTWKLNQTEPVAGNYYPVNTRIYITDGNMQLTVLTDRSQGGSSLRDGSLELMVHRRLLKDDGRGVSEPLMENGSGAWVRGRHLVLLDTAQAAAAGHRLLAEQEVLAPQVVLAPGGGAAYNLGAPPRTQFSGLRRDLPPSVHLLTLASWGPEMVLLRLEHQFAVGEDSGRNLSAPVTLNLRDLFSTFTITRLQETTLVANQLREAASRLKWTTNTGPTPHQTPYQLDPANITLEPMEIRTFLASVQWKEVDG

[2] = Self-decomposition half-time of the intermediate released from prodrug 2 by Jack Bean mannosidase, followed by 1H NMR; assay type: physicochemical; details: phosphate/citrate buffer
Method: Next, the pH dependence of the self-fragmentation of intermediates 3 and 4 was investigated. It is well known that different organelles have different pH values. […] Golgi mannosidase II has been identified as a target for anti-metastatic therapy (Goss et al., Clin. Cancer Res. 1995, 1, 935; Elbein, FASEB J. 1991, 5, 3055), whereas inhibition of lysosomal mannosidase leads to the phenotype of lysosomal storage disease. […] Thus, compound 2 (0.4 mM) in sodium acetate buffers of different pH was treated with a large quantity (7 Units/mL) of Jack Bean α-mannosidase (JBM) to completely convert the prodrug into intermediate 4. Subsequently, the decomposition of 4 was monitored by ^1H NMR by integration of key signals of the intermediate and final product. […] The results of these experiments indicate that in a compartment such as the medial Golgi, which has a pH close to neutral, the decomposition of the intermediate will occur in minutes, which is probably fast enough for rebinding of the inhibitor.
Self-decomposition half-time measurements. A solution of compound 2 (0.08 μmol) and Jack Bean mannosidase (JBM) (1.4 Units) in deuterated 0.2 M phosphate/0.1 M citrate buffer (pH=4.0, 4.5, 5.0, 5.5, 6.0 or 6.5; 0.2 ml) was incubated at 37° C. or 25° C., and ^1H NMR spectra (600 MHz) were recorded at different time intervals. Relevant signals were integrated to determine the appearance of the intermediate 4 and the final product 6, and the decomposition rate.

[3] = molecular target: T1, human lysosomal mannosidase (HLM); assay: Enzymatic cleavage of prodrugs by human lysosomal mannosidase monitored by 1H NMR; assay type: biochemical; details: HLM 20 mU, 80 nmol compound, sodium acetate buffer pH 5.6, 37° C.
Method: HLM ([…]) was added to a solution of 2 (a) or 1 (b) ([…]) in a deuterated sodium acetate buffer (100 mM, pH, 5.6, 0.2 mL) and the enzymatic cleavage was monitored by ^1H NMR (600 MHz).
The enzymatic cleavage of 1 and 2 by human lysosomal mannosidase (HLM) was monitored by ^1H NMR (600 MHz) (Wilson et al., Org. Lett. 1999, 1, 443) Thus, HLM (20 mU) was added to a solution of 1 or 2 (80 nmol) dissolved in a deuterated sodium acetate buffer (100 mM, pH 5.6, 0.2 mL). The progress of the reaction was monitored by the integration of key signals of the starting material, the intermediate and final product. […] In this case, the released mannostatin A (5) inhibits HLM terminating further hydrolysis of 1. Mannostatin A is a potent inhibitor of retaining α-mannosidases (Ki=90 nM, HLM) (Li et al., Chem. Bio. Chem. 2004, 5, 1220) and thus the release of low concentrations of the active compound is sufficient to abolish enzyme activity.
Kinetic measurements. A solution of compound 1 or 2 (0.08 μmol) and human lysosomal mannosidase (HLM, 0.02 Unit) in deuterated sodium acetate buffer (0.1 M; pH 5.6; 0.2 ml) was incubated at 37° C., and ^1H NMR spectra (600 MHz) were recorded at different time intervals. Relevant signals were integrated to determine the rate of enzymatic hydrolysis, and the appearance of the intermediate and the final product.

α-glucosidase = assay: Negative enzyme control experiment, α-glucosidase; assay type: biochemical; details: 0.1 Unit, MES buffer pH 6.8, 37° C., 20 h
Method: (§1) Compounds 1 and 2 were subjected to an α-glucosidase, α-fucosidase and α-galactosidase.
(§2) Negative enzyme control experiments. A solution of compound 1 or 2 (0.004 mmol) and α-glucosidase, α-galactosidase or α-L-fucosidase (0.1 Unit) in MES buffer (0.05 M; pH 6.8 for α-glucosidase, pH 6.5 for α-galactosidase or pH 5.5 for α-L-fucosidase; 1 ml) was incubated at 37° C. for 20 h, after which the reaction mixture was freezing-dried, and the solid residue was analyzed by ^1H NMR spectrometry and mass spectrometry.

α-galactosidase = assay: Negative enzyme control experiment, α-galactosidase; assay type: biochemical; details: 0.1 Unit, MES buffer pH 6.5, 37° C., 20 h
Method: as §1, §2

α-L-fucosidase = assay: Negative enzyme control experiment, α-L-fucosidase; assay type: biochemical; details: 0.1 Unit, MES buffer pH 5.5, 37° C., 20 h
Method: as §1, §2

[4] = Stability measurements in deuterated sodium acetate buffer by 1H NMR; assay type: physicochemical; details: 0.4 mM, sodium acetate buffer pH 4.0, 37° C., 6 days
Method: Stability measurements. A solution of compound 1 or 2 (0.4 mM) in deuterated sodium acetate buffer (100 mM; pH 4.0; 0.2 ml) in a NMR tube was incubated at 37° C. for 6 days. ^1H NMR spectra were recorded every day.

[5] = molecular target: T1, human lysosomal mannosidase (HLM); details: Li et al., Chem. Bio. Chem. 2004; cited from earlier work
MDAY-D2 lymphoma cells = assay: Inhibition of cell surface polylactosamine biosynthesis (L-PHA lectin blot); assay type: cell-based; details: MDAY-D2 cells cultured for two days
Method: MDAY-D2 cells were cultured for 2 days in the absence (control) or presence of different concentrations of compounds 14 (a) or 15 (b). Cellular proteins (10 μg) were subjected to SDS-PAGE and polylactosamine was visualized using a fluorescein labeled L-PHA lectin (upper part figure). Fluorescence bands were scanned by laser beam densitometry, and the relative intensity depicted (lower part figure).
It is known that the metastatic MDAY-D2 lymphoma cell line over-expresses the enzyme N-acetyl glucosaminyltransferase V (GnTV) (Goss et al., Clin. Cancer Res. 1995, 1, 935). […] Subsequently, the presence of polylactosamine linked to proteins was determined by analyzing cell lysates by Western blotting using a fluorescein labeled PHA lectin (Dennis et al., Cancer Res. 1990, 50, 1867).
Cell maintenance. […] New batches of frozen cell stock were grown up every 2 months and growth morphology was evaluated.
Inhibition of cell surface polylactosamine biosynthesis. […] Protein concentrations were determined using the BCA reagent (Pierce) and cellular proteins (10 μg) were separated by SDS-PAGE using 4-20% linear gradient polyacrylamide gels (Bio-Rad). […] Fluorescence bands were imaged at 495 nm (absorbance)/520 nm (emission) and the intensity scanned by laser beam densitometry (Typhoon 9410 Imager; Amersham Biosciences).

inhibition of HLM [1]: not an inhibitor of HLM
SMILES: NC1C(O)C(O)C(O)C1O (centres unmarked) [Compound 6, aminocyclopentitetrol]

half-life of self-fragmentation ([2]; pH 4.0, 25° C.): 46.67 h
half-life of self-fragmentation ([2]; pH 4.0, 37° C.): 8 h
half-life of self-fragmentation ([2]; pH 4.5, 37° C.): 4.5 h
half-life of self-fragmentation ([2]; pH 5.0, 37° C.): 1.67 h
half-life of self-fragmentation ([2]; pH 5.5, 37° C.): 0.75 h
half-life of self-fragmentation ([2]; pH 6.0, 37° C.): 0.267 h
half-life of self-fragmentation ([2]; pH 6.5, 25° C.): 0.75 h
half-life of self-fragmentation ([2]; pH 6.5, 37° C.): 0.15 h
enzymatic hydrolysis of the prodrug by HLM [3]: progressed to completion
decomposition by α-glucosidase (α-glucosidase): No decomposition of product was observed
decomposition by α-galactosidase (α-galactosidase): No decomposition of product was observed
decomposition by α-L-fucosidase (α-L-fucosidase): No decomposition of product was observed
decomposition in buffer [4]: No decomposition of product was observed
SMILES: O=C(NC1C(O)C(O)C(O)C1O)OCc1ccc(O[C@H]2O[C@H](CO)[C@@H](O)[C@H](O)[C@@H]2O)cc1 (stereo partly drawn) [Compound 2, (1,4/2,3,5)-5-[4-(α-D-mannopyranosyloxy)-benzyloxycarbonyl]amino-1,2,3,4-cyclopentanetetrol]

SMILES: CS[C@@H]1[C@@H](N)[C@@H](O)[C@@H](O)[C@H]1O [Mannostatin A, mannostatin A]
Ki [5]: 90 nM

SMILES: CSC1C(NC(=O)OCc2ccc(O[C@H]3O[C@H](COC(C)=O)[C@@H](OC(C)=O)[C@H](OC(C)=O)[C@@H]3OC(C)=O)cc2)C(OC(C)=O)C(OC(C)=O)C1OC(C)=O (stereo partly drawn) [Compound 14, 1D-(1,2,3,4/5)-4-[4-(2,3,4,6-tetra-O-acetyl-α-D-mannopyranosyloxy)-benzyloxycarbonyl]amino-1,2,3-tri-O-acetyl-5-(methylsulfanyl)cyclopentane-1,2,3-triol]
reduction in fluorescein labeling (polylactosamine) (MDAY-D2 lymphoma cells; 1 μM): 50%

SMILES: CC(=O)OC[C@H]1O[C@H](Oc2ccc(COC(=O)NC3C(OC(C)=O)C(OC(C)=O)C(OC(C)=O)C3OC(C)=O)cc2)[C@@H](OC(C)=O)[C@@H](OC(C)=O)[C@@H]1OC(C)=O (stereo partly drawn) [Compound 15, (1,4/2,3,5)-5-[4-(2,3,4,6-tetra-O-acetyl-α-D-mannopyranosyloxy)-benzyloxycarbonyl]amino-1,2,3,4-tetra-O-acetyl-1,2,3,4-cyclopentanetetrol]
inhibitory activity on polylactosamine formation (MDAY-D2 lymphoma cells; 0.1-100 μM): did not display any inhibitory activity
